In patent publication US20130315965A1, “HARMINE DERIVATIVES FOR PROMOTING BONE GROWTH” (OssiFi, Inc., priority 2012, published 2013):

How the values were obtained:
Sclerostin = target: T1, Sclerostin (Homo sapiens, UniProt Q9BQB4); assay: luciferase Wnt pathway activity assay (inhibition of sclerostin by restoration of Wnt signaling); assay type: cell-based; conditions: for identified as promoting bone growth (Wnt signaling / inhibition of sclerostin): human cells, luciferase Wnt pathway activity; for concentration at which compound inhibits sclerostin and restores normal Wnt activity (RLU): human embryonic cells, luciferase RLU, p<0.05
T1 construct: host or cells: human cells (reporter cells)
T1 sequence (Q9BQB4 24-213): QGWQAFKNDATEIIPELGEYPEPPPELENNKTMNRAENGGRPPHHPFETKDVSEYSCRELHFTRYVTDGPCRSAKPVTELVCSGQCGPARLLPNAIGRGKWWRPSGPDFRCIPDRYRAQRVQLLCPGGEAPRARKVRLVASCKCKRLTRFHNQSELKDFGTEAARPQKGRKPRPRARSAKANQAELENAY
Method: The Y axis represents Relative Light Units (RLU) which represents Wnt pathway signaling. Addition of Wnt (W) activates the Wnt pathway, while addition of Sclerostin (S) inhibits the Wnt pathway. Addition of Compound 1 inhibits sclerostin and restores normal Wnt activity at 3 μM. Asterisks represent statistically significant p<0.05.
The Y axis represents Relative Light Units (RLU) which represents Wnt pathway signaling. Addition of Wnt (W) activates the Wnt pathway, while addition of Sclerostin (S) inhibits the Wnt pathway. Addition of Compound 2 inhibits sclerostin and restores normal Wnt activity at 10 μM. Asterisks represent statistically significant p<0.05.
Briefly, human cells are treated with a predetermined dose of a candidate compound for a complete dosing schedule. Control vehicle treated cells are treated with a control solution, preferably a non-irritating buffer solution or other carrier. Once the dosing schedule has been completed, both test and control assays are examined for luciferase Wnt pathway activity to determine the quantity of Wnt signaling and thus inhibition of sclerostin.
Bars marked with a double asterisk indicate a significant difference as compared to S, but not as compared to W. Concentrations are indicated along the X axis in micromolar values.
Concentrations are indicated along the X axis in micromolar values.

osteocalcin (OCN) = assay: Bone formation assay: osteocalcin (OCN) ELISA in cells treated with sclerostin and compound; assay type: cell-based, human
From the text: Bone formation can be assayed in vitro or in vivo using a serum marker for bone formation, osteocalcin (OCN). OCN is commercially available, e.g., from Biomedical Technologies, Inc. (Stoughton, Mass.). In one exemplary assay, using the manufacturer's protocol for the mouse osteocalcin EIA kit (described at http://www.btiinc.com/page/cata2/html#mouse_osteocalcin) bone formation in cells such as MC3T3 osteoblast cells can be assayed by measuring the concentration of OCN. An ELISA assay followed by spectrophotometer optical density (OD) readings to measure the concentration of OCN is used to detect the level of OCN secreted from cells, e.g., cells treated with a vehicle control, a sclerostin control, or with a combination of sclerostin and a compound as described herein. In some embodiments, the cells are treated with increasing doses of the control or compound.
Compound 2 was added in increasing amounts (0.13 μM-100 μM) with sclerostin at 1/8 volume.

Structure (SMILES) | identified as promoting bone growth (Wnt signaling / inhibition of sclerostin) (Sclerostin) | concentration at which compound inhibits sclerostin and restores normal Wnt activity (RLU) (Sclerostin) [µM] | effect on OCN induction blocked by sclerostin (osteocalcin (OCN); 0.13 μM-100 μM compound with sclerostin at 1/8 volume) | stimulation of bone formation marker OCN versus vehicle-treated cells with No Sclerostin (NS) (osteocalcin (OCN); 20 μM compound with Sclerostin at 1/8 volume)
Cc1nc(O)cc2c1[nH]c1ccccc12 [Compound 1, 3-hydroxy-1-methyl-9H-pyrido[3,4-b]indole] | identified as promoting bone growth | 3 | – | –
COc1ccc(-c2nccc3c2[nH]c2ccccc23)cc1 [Compound 2, 1-(4-methoxyphenyl)-9H-pyrido[3,4-b]indole] | identified as promoting bone growth | 10 | restoration of OCN activity that was blocked by sclerostin | stimulation of OCN well over that of the vehicle-treated cells
